Assay results published in patent US9845327B2, “Treatment of proteinopathies” (THE GENERAL HOSPITAL CORPORATION, priority 2011, dated 2017).

Key:
α-synuclein = α-synuclein levels by western blot in human midbrain iPS dopamine neurons; type: cell-based
Description: In this Example, it was investigated whether enhancement of lysosomal enzyme trafficking through stimulation of the secretory pathway would result in increased lysosomal function and reduction of α-synuclein. Therefore, in this Example the small GTPase Rab1a polypeptide was overexpressed by lentiviral infection in iPS neurons to stimulate enzyme trafficking. Rab1a polypeptide has been established to function specifically at the ER-Golgi step of the secretory pathway (Duvernay et al., Cell Signal 17: 1457, 2005). The effect of Rab1a polypeptide was determined in human iPS dopamine neurons derived from reprogrammed fibroblasts of a PD patient (Coriell line ND27760). These cells harbor a triplication mutation in the genomic region containing SNCA which encodes for α-synuclein, leading to overexpression of the protein and lysosomal trafficking deficits. […] Further in this Example, it was determined if Rab1a polypeptide enhances lysosomal function by monitoring cathepsin B activity.
(§1) It was also shown in this Example that treatment with the GCase polypeptide activator increased the levels of total GCase protein and increased the post-ER forms, indicating enhancement of flux to the lysosome (FIG. 19B).
(§2) Most materials for SDS-PAGE were obtained from Invitrogen (NuPAGE system). Protein lysates were boiled in sample buffer (20 mM Tris, 1% (v/v) glycerol, 180 mM β-mercaptoethanol, 0.003% (w/v) bromophenol blue, 2% (w/v) SDS, pH 6.8), resolved on 4%-12% Bis-Tris polyacrylamide precast gels in a MOPS-SDS running buffer, or 4%-12% Tris-Glycine gels. 10% Tris-Glycine gels were utilized for some GCase polypeptide western blot's (FIGS. 13B, 13D, and 13E, and FIGS. 14C and 14F). […] Blots were blocked in Odyssey blocking buffer (Li-Cor biosciences) containing 0.05% Tween, or 5% non-fat dry milk in TBS-T 0.2%, followed by incubation with primary antibodies (see above for dilutions), and detected with anti-mouse or -rabbit IgG conjugated to IRDye 680 or 800 (1:10,000, Li-Cor biosciences). […] Any nonspecific bands detected were not included in densitometric analyses. […]

GCase polypeptide = target: T1, GCase polypeptide (Homo sapiens, UniProt P04062); assay: GCase polypeptide levels and post-ER forms by western blot in human iPS dopamine neurons; type: cell-based; settings: human midbrain iPS dopamine neurons
T1 construct: endogenous in cells; host or cells: human iPS-derived midbrain dopamine neurons (healthy control; PD patient with SNCA triplication, Coriell ND27760)
T1 sequence (P04062 40-536): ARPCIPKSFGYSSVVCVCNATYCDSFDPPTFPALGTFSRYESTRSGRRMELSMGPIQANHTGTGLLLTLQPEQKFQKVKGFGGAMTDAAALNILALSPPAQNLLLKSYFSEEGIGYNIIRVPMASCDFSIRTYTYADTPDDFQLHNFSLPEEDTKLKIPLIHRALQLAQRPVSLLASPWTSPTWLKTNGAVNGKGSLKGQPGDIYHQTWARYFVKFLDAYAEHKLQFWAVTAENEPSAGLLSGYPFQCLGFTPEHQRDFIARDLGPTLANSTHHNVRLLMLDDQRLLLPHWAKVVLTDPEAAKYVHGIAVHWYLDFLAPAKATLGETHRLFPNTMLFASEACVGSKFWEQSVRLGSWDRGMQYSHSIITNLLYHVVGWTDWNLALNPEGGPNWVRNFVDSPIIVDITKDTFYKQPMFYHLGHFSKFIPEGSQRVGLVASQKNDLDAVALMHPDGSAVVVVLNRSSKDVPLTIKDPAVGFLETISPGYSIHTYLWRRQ
Experimental: In this Example, human dopamine neurons generated from iPS cells of an unaffected control were treated with a pharmacological chaperone activator of GCase polypeptide, isofagomine (IFG). […] Treatment of wild-type neurons with 100 μM IFG for 5 days followed by 1 day wash-out increased the levels of GCase polypeptide (FIGS. 15A and 15B). This increase was likely due to the fact that wild-type GCase polypeptide was occasionally misfolded in the ER and degraded (about 30% of the total made in the ER), and IFG appeared to also stabilize the wild-type misfolded forms.
as §1
In this Example, the effect of combining the GCase polypeptide pharmacological chaperone IFG with the antioxidant n-acetyl-cysteine (NAC) on GCase polypeptide maturation in PD iPS neurons was tested. Neurons were treated with either IFG, NAC, or IFG and NAC together, and GCase polypeptide maturation was analyzed by western blot.
as §2

Hela cells = assay: Lysosomal proteolysis by radioactive pulse-chase in transfected Hela cells; type: cell-based
Experimental: Further in this Example, it was assessed whether GCase polypeptide overexpression had the ability to directly enhance lysosomal proteolysis in a non-neuronal cell line. Hela cells were transfected with a myc-tagged GCase polypeptide expression construct and lysosomal proteolysis was assessed by radioactive pulse-chase (FIG. 17A). […] This effect was also confirmed through a different assay, by measuring the effect of GCase polypeptide overexpression on the activity of the lysosomal protease cathepsin B. A cell-permeable fluorescent-tagged cathepsin B substrate (MAGIC RED cathepsin detection kit, Immunochemistry Technologies) was added to transfected Hela cells, and degradation of this substrate was determined in living cells after substrate wash-out.

primary cortical neurons = assay: Proteolysis of long-lived proteins by radioactive pulse-chase in primary cortical neurons; type: cell-based, mouse; settings: added to GCase polypeptide KD
Experimental: In this Example, a test was conducted to determine whether GCase polypeptide KD affects a lysosomal degradation pathway. In this test, neurons were treated with the well-established lysosomal inhibitors ammonium chloride (NH4Cl) and leupeptin.
Proteolysis of long-lived proteins was determined by radioactive pulse-chase using ^3H-leucine. This procedure was performed as described previously (Kaushik et al. Methods Enzymol. 452: 297, 2009). Briefly, cortical cells were grown in 24 well clusters seeded at 33000 cells/well and infected at moi 3 with scrb or GCase polypeptide shRNA expressing lentiviral vectors. On dpi 4, ^3H-leucine (PerkinElmer, # NET460A001 MC, final 5 μCi/ml) was added in standard neurobasal medium containing B27 for 2 days to trace label proteins. […] Samples were centrifuged at 20,000×g for 20 min, 4° C., and the radioactivity was measured in 5 ml of scintillation cocktail using a Beckman LS 1701 liquid scintillation counter (Beckman Instruments). Precipitated protein pellets were extracted in 200 μl of Na deoxycholate, 0.1 M NaOH, and radioactivity was determined. Percent proteolysis was calculated as described in detail elsewhere (Kaushik et al. Methods Enzymol. 452: 297, 2009). […]

[1] = target: T2, recombinant human α-synuclein (Homo sapiens, UniProt P37840); assay: In vitro soluble α-synuclein oligomers and sedimentation with lipids (SEC/SDS-PAGE, ANS, 100,000 x g centrifugation)
T2 construct: made in house; host or cells: E. coli BL21 CodonPlus (DE3)-RIL
Description: Therefore, in this Example it was hypothesized that the delay in fibril formation observed in vitro resulted from a kinetic stabilization of a soluble oligomeric intermediate species. To test this, the nature of the species that form during the lag phase (between 1 and 16 hr) of PC25/GlcCer75-containing reactions were characterized by analytic biochemical methods. Soluble portions of the reaction mixtures were obtained by centrifugation at 100,000×g and analyzed at 1 and 5 hr after the addition of lipids by SEC/SDS-PAGE. […] Further, detected were increased amounts of soluble SDS and heat-stable dimers (36 kDa), trimers (54 kDa), and higher oligomeric species eluting as 36-27 Å-sized particles in PC25/GlcCer75-containing reactions compared to controls (FIG. 7B). […] Syn505 also detected α-synuclein directly on GlcCer tubular structures (FIG. 7G, i and ii) but not on GlcCer-alone reactions (FIG. 7I), indicating an association of misfolded α-synuclein with GlcCer. α-synuclein-GlcCer reactions were further analyzed by 8-anilino-1-napthalene sulfonate (ANS) binding, a fluorescent dye used to detect aggregation-prone conformational intermediates (Stryer, 1965). […]
Oligomers were also detected by 8-anilino-1-napthalene sulfonate (ANS) (Acros #401220050). […]

[2] = target: T2, recombinant human α-synuclein; assay: In vitro α-synuclein fibril (amyloid) formation with lipid dispersions, thioflavin T fluorescence
Experimental: In this Example, lipid dispersions made of mixtures of purified GlcCer and brain phosphatidylcholines (PCs) were incubated with α-synuclein at physiological conditions (pH 7.4, 37° C.). Electron microscopy (EM) analysis indicated the formation of tubules consisting of polymerized GlcCer (FIGS. 7G-7I), similar to those previously observed in Gaucher cells in patients and mouse models (Lee, PNAS 61: 484, 1968).
However, increasing the amount of GlcCer to 75% while keeping the total lipid amount constant (PC25/GlcCer75) altered the kinetic profile of α-synuclein fibril formation by delaying the formation of insoluble thioT-positive α-synuclein fibrils, extending the lag time from 2 to 16 hr (FIG. 7A).
The fibril assembly phase PC25/GlcCer75-containing reactions occurred between 16 and 24 hr, compared to control reactions where the assembly occurred between 2 and 24 hr. […] The aggregated species formed at the end stage of the fibril-forming reaction, after assembly was completed and equilibrium was reached (at 28 hr) were further analyzed. […]
α-synuclein was expressed in E. coli and purified by boiling followed by HPLC as described previously (Mazzulli et al 2007). […] Fluorescence (ex=430 nm, em=510, 0.1 s) was determined in a Wallac Victor^2 plate reader (Perkin Elmer) in black FluorNunc Maxisorp 96 well plates (Nunc, #475515). […]

Compound: C#Cc1ccc(NC(=O)c2cnn3c(C)cc(C)nc23)cc1 [NCGC00188758]
- α-synuclein protein levels (α-synuclein; neurons from a PD patient with triplication of the SNCA genomic region): dose-dependent decrease
- α-synuclein protein levels (α-synuclein; neurons from healthy unaffected controls): dose-dependent decrease
- levels of total GCase protein (GCase polypeptide): increased
- post-ER forms of GCase (GCase polypeptide): increased

Compound: Cl.N [ammonium chloride]
- effect of lysosomal inhibitors on the proteolysis increase by GCase polypeptide overexpression (Hela cells): completely reversed
- proteolysis of long-lived proteins in GCase polypeptide shRNA-treated cells (primary cortical neurons): did not additively inhibit

Compound: Glucosyl (β) Ceramide [GlcCer]
- amount of pelletable α-synuclein protein (100,000×g sedimentation) ([1]; pH 5.0, 28 hr): no effect
- maximal thioT signal at the end stages, fold higher compared to control reactions ([2]; pH 5.0): 2- to 3 fold
- α-synuclein fibril formation ([2]; physiological conditions, pH 7.4, 37° C.): no effect

Compound: monosialotetrahexosylganglioside [ganglioside GM1]
- soluble α-synuclein oligomers compared to α-synuclein alone ([1]; pH 5.0, 15 hr incubation, 10:1 lipid:protein ratio): dramatic stabilization and elevation
